Structures can show the parent of a compound that is named as a salt.
Assay: in vitro
Conditions: for CLint / T1/2: pooled liver microsomes 0.5 mg/mL protein, test compound 1 μM, NADPH 1 mM, 37° C., 0-45 min, LC-MS/MS; for half-life / microsomal CLint: pH 7.4; for differences in half-life and intrinsic clearance compared to 2-Br-LSD: human liver microsomes, significant = 15% or more increase in half-life, CLint ratio >1.15 or <0.85
Method: Test compound (1 μM) was incubated with pooled liver microsomes.
Pooled liver microsomes were purchased from a reputable commercial supplier. Microsomes were stored at −80° C. prior to use.
A minus cofactor control incubation was included for each compound tested where 0.1 M phosphate buffer pH 7.4 was added instead of NADPH (minus NADPH). Two control compounds were included with each species. All incubations were performed singularly for each test compound.
The reactions were stopped by transferring incubate into acetonitrile at the appropriate time points, in a 1:3 ratio. The termination plates were centrifuged at 3,000 rpm for 20 min at 4° C. to precipitate the protein.
Following protein precipitation, the sample supernatants were combined in cassettes of up to 4 compounds, internal standard was added and samples analyzed using generic LCMS/MS conditions.
From a plot of ln peak area ratio (compound peak area/internal standard peak area) against time, the gradient of the line was determined. Subsequently, half-life and intrinsic clearance were calculated using the equations below: […]
Relevant control compounds were assessed, ensuring intrinsic clearance values fell within the specified limits (if available). Any failures were rejected and the assay repeated. The intrinsic clearance (CLint) of the test compound and t ½ were returned.

Compound | CLint | T1/2 | half-life (human, microsomes) | microsomal CLint (human, microsomes) | differences in half-life and intrinsic clearance compared to LSD (human, microsomes) | differences in half-life and intrinsic clearance compared to 2-Br-LSD
[2H]C([2H])([2H])C([2H])([2H])N(C(=O)[C@@H]1C=C2c3cccc4[nH]cc(c34)C[C@H]2N(C)C1)C([2H])([2H])C([2H])([2H])[2H] [Compound 47, (6aR,9R)-N,N-Bis(ethyl-d5)-7-methyl-4,6,6a,7,8,9-hexahydroindolo[4,3-fg]quinoline-9-carboxamide] | 17.2 μL/min/mg protein | 1.35 h | – | – | – | –
[2H]c1[nH]c2c([2H])c([2H])c([2H])c3c2c1C[C@@H]1C3=C[C@@H](C(=O)N(CC)CC)CN1C [Compound 45, (6aR,9R)-N,N-diethyl-7-methyl-4,6,6a,7,8,9-hexahydroindolo[4,3-fg]quinoline-9-carboxamide-1,2,3,5-d4 triflate-d] | 16.7 μL/min/mg protein | 1.38 h | – | – | – | –
[2H]c1[nH]c2cccc3c2c1C[C@@H]1C3=C[C@@H](C(=O)N(C([2H])([2H])C([2H])([2H])[2H])C([2H])([2H])C([2H])([2H])[2H])CN1C [Compound 55, (6aR,9R)-N,N-Bis(ethyl-d5)-7-methyl-4,6,6a,7,8,9-hexahydroindolo[4,3-fg]quinoline-9-carboxamide-5-d trifluoroacetate-d] | – | – | 1.39 h | 16.6 µL/min/mg | – | –
[2H]c1[nH]c2c([2H])c([2H])c([2H])c3c2c1C[C@@H]1C3=C[C@@H](C(=O)N(C([2H])([2H])C([2H])([2H])[2H])C([2H])([2H])C([2H])([2H])[2H])CN1C [Compound 67, (6aR,9R)-N,N-Bis(ethyl-d5)-7-methyl-4,6,6a,7,8,9-hexahydroindolo[4,3-fg]quinoline-9-carboxamide-1,2,3,5-d4 triflate-d] | – | – | 2 h | 11.5 µL/min/mg | significant differences | –
[2H]C([2H])([2H])N1C[C@H](C(=O)N(C([2H])([2H])C([2H])([2H])[2H])C([2H])([2H])C([2H])([2H])[2H])C=C2c3cccc4[nH]cc(c34)C[C@H]21 [Compound 50, (6aR,9R)-N,N-bis(ethyl-d5)-7-(methyl-d3)-4,6,6a,7,8,9-hexahydroindolo[4,3-fg]quinoline-9-carboxamide trifluoroacetate-d] | – | – | 1.61 h | 14.3 µL/min/mg | – | –
[2H]C([2H])([2H])N1C[C@H](C(=O)N(C([2H])([2H])C([2H])([2H])[2H])C([2H])([2H])C([2H])([2H])[2H])C=C2c3cccc4[nH]c(Br)c(c34)C[C@H]21 [Compound 9, (6aR,9R)-5-bromo-N,N-bis(ethyl-d5)-7-(methyl-d3)-4,6,6a,7,8,9-hexahydroindolo[4,3-fg]quinoline-9-carboxamide trifluoroacetate-d] | 38.8 μL/min/mg protein | 0.595 h | – | – | – | –
[2H]c1[nH]c2cccc3c2c1C[C@@H]1C3=C[C@@H](C(=O)N(CC)CC)CN1C [Compound 41, (6aR,9R)-N,N-diethyl-7-methyl-4,6,6a,7,8,9-hexahydroindolo[4,3-fg]quinoline-9-carboxamide-4,5-d trifluoroacetate-d] | 17.8 μL/min/mg protein | 1.3 h | – | – | – | –
[2H]c1c([2H])c2c3c(c(Br)[nH]c3c1[2H])C[C@@H]1C2=C[C@@H](C(=O)N(CC)CC)CN1C [Compound 1, (6aR,9R)-5-Bromo-N,N-diethyl-7-methyl-4,6,6a,7,8,9-hexahydroindolo[4,3-fg]quinoline-9-carboxamide-1,2,3-d3 formate] | 52.6 μL/min/mg protein | 0.438 h | – | – | – | differences
[2H]C([2H])([2H])N1C[C@H](C(=O)N(CC)CC)C=C2c3cccc4[nH]c(Br)c(c34)C[C@H]21 [Compound 2, (6aR,9R)-5-bromo-N,N-diethyl-7-(methyl-d3)-4,6,6a,7,8,9-hexahydroindolo[4,3-fg]quinoline-9-carboxamide] | 49.4 μL/min/mg protein | 0.468 h | – | – | – | differences
CCN(CC)C(=O)[C@@H]1C=C2c3cccc4[nH]cc(c34)C[C@H]2N(C)C1 [LSD, Lysergic acid diethylamide, reference compound] | – | – | 1.42 h | 16.3 µL/min/mg | – | –
CCN(CC)C(=O)[C@@H]1C=C2c3cccc4[nH]c(Br)c(c34)C[C@H]2N(C)C1 [Compound 2-Br-LSD, 2-Bromolysergic acid diethylamide, reference compound] | 56.3 μL/min/mg protein | 0.41 h | – | – | – | –
[2H]C([2H])([2H])C([2H])([2H])N(C(=O)[C@@H]1C=C2c3cccc4[nH]c(Br)c(c34)C[C@H]2N(C)C1)C([2H])([2H])C([2H])([2H])[2H] [Compound 7, (6aR,9R)-5-bromo-N,N-bis(ethyl-d5)-7-methyl-4,6,6a,7,8,9-hexahydroindolo[4,3-fg]quinoline-9-carboxamide] | 44.6 μL/min/mg protein | 0.518 h | – | – | – | –
COc1ccc2c(c1)[C@]13CCCC[C@@H]1[C@H](C2)N(C)CC3 [dextromethorphan, reference compound] | – | – | – | 46.8 µL/min/mg | – | –
